In this test the test system is M. mycetomatis genome strain MM55. Nature of the test: CLSI M38-A2 based in vitro susceptibility screening (XTT or resazurin), growth at fixed concentration. In kind it is cell-based, Madurella mycetomatis. The following applies: Madurella mycetomatis; for Percent fungal survival at 100 µM: read-out: Percentage survival at 100um, 100 uM A (second replicate column).
Setting [1] is: mean, read-out: Percentage survival at 25um, 25 uM mean.
The mark [2] stands for this setting: replicate A, read-out: Percentage survival at 25um, 25 um A.
[3] abbreviates: replicate B, read-out: Percentage survival at 25um, 25 uM B.
Setting [4] is: replicate C, read-out: Percentage survival at 25um, 25 uM C.
Where [5] appears, read: mean, read-out: Percentage survival at 100um, 100 uM mean.
The mark [6] stands for this setting: replicate (first column), read-out: Percentage survival at 100um, 100 uM A.
The mark [7] stands for this setting: replicate (second column), read-out: Percentage survival at 100um, 100 uM A.
Setting [8] is: replicate (third column), read-out: Percentage survival at 100um, 100 uM A.
Where [9] appears, read: mean of three replicates, read-out: Percentage survival at 25um, 25 uM mean.
Setting [10] is: mean of three replicates, read-out: Percentage survival at 100um, 100 uM mean.
The mark [11] stands for this setting: replicate 1, read-out: Percentage survival at 100um, 100 uM A (first replicate column).
[12] abbreviates: replicate 3, read-out: Percentage survival at 100um, 100 uM A (third replicate column).
Where [13] appears, read: mean of replicates, MM55, read-out: Percentage survival at 25um, 25 uM mean.
Setting [14] is: replicate A, MM55, read-out: Percentage survival at 25um, 25 um A.
Where [15] appears, read: replicate B, MM55, read-out: Percentage survival at 25um, 25 uM B.
The mark [16] stands for this setting: replicate C, MM55, read-out: Percentage survival at 25um, 25 uM C.
Where [17] appears, read: mean of replicates, MM55, read-out: Percentage survival at 100um, 100 uM mean.
Where [18] appears, read: replicate 1, MM55, read-out: Percentage survival at 100um, 100 uM A.
Setting [19] is: replicate 2, MM55, read-out: Percentage survival at 100um, 100 uM A.
[20] abbreviates: replicate 3, MM55, read-out: Percentage survival at 100um, 100 uM A.
[21] abbreviates: mean of replicates, read-out: Percentage survival at 25um, 25 uM mean.
The mark [22] stands for this setting: mean of replicates, read-out: Percentage survival at 100um, 100 uM mean.
Setting [23] is: replicate 1, read-out: Percentage survival at 100um, 100 uM A.
[24] abbreviates: replicate 2, read-out: Percentage survival at 100um, 100 uM A.
Where [25] appears, read: replicate 3, read-out: Percentage survival at 100um, 100 uM A.

The structures appear in SMILES notation. Read-outs that look alike come from different tables or passages of the source.

Drawing on article PMC8815882, “Screening the pandemic response box identified benzimidazole carbamates, Olorofim and ravuconazole as promising drug candidates for the treatment of eumycetoma” (PLoS Neglected Tropical Diseases, 2022), this text covers activity and Percent fungal survival for 17 compounds.

Turning to `CC(C)c1ccc(COc2cccc(-c3cc([S+](C)[O-])c(C#N)c(=O)[nH]3)c2)cc1` (stereo not shown) [MMV1582497], the activity at 25 µM came out at 61.3% under setting [1], 65% under setting [2], 60.9% under setting [3] and 58.1% under setting [4]. Besides, the activity at 100 µM reads like this: under setting [5], 40.1%; under setting [6], 1.56%; under setting [7], 53.5%; under setting [8], 65.4%.
Consider `Cc1cc(C)n2nc(C(=O)NS(=O)(=O)c3c(C)cccc3OC(F)(F)F)nc2n1` [MMV1782402], for which the activity at 25 µM is, setting by setting: under setting [9], 96.1%; under setting [2], 98.2%; under setting [3], 98.8%; under setting [4], 91.3%. The activity at 100 µM under setting [10] was 91.2%, the activity at 100 µM under setting [11] was 99% and the activity at 100 µM under setting [12] came out at 82%. Besides, the Percent fungal survival at 100 µM (replicate 2) is 92.6%.
`N[C@H](CCC(=O)N[C@@H](Cc1c[nH]c2ccccc12)C(=O)O)C(=O)O` [MMV1581033]: the activity at 25 µM is, setting by setting: under setting [13], 91%; under setting [14], 91.2%; under setting [15], 94.6%; under setting [16], 87.2%. In addition, the activity at 100 µM runs as follows: under setting [17], 66.8%; under setting [18], 84.1%; under setting [19], 28.6%; under setting [20], 87.7%.
`O=C(Nc1ncc(Cc2cccc3ccccc23)s1)C1CCCCC1` [MMV1593532]: the activity at 25 µM under setting [21] amounted to 92.1%, the activity at 25 µM under setting [2] amounted to 93.7%, the activity at 25 µM under setting [3] stood at 94.5% and the activity at 25 µM under setting [4] was 88%. Further, the activity at 100 µM amounted to 93.9% under setting [22], 107% under setting [23], 89% under setting [24] and 85.1% under setting [25].
On to `NCCCc1ccccc1C(=O)Nc1ncc([N+](=O)O)s1` [MMV1579786], for which the activity at 25 µM by setting is: (mean of three, M. mycetomatis MM55, read-out: Percentage survival at 25um, 25 uM mean) 82.7%; (replicate A, M. mycetomatis MM55, read-out: Percentage survival at 25um, 25 um A) 85.5%; (replicate B, M. mycetomatis MM55, read-out: Percentage survival at 25um, 25 uM B) 82.6%; (replicate C, M. mycetomatis MM55, read-out: Percentage survival at 25um, 25 uM C) 80.1%. Besides, the activity at 100 µM was 76.6% (mean of three, M. mycetomatis MM55, read-out: Percentage survival at 100um, 100 uM mean); 71.4% (replicate 1, M. mycetomatis MM55, read-out: Percentage survival at 100um, 100 uM A (first replicate column)); 75.1% (replicate 3, M. mycetomatis MM55, read-out: Percentage survival at 100um, 100 uM A (third replicate column)). Besides, the Percent fungal survival at 100 µM (replicate 2, M. mycetomatis MM55) amounted to 83.2%.
In the case of `CCc1cc(O)c(Oc2ccc(C(N)=O)cc2F)cc1F` [MMV1578564], the activity at 25 µM under setting [9] came out at 106%, the activity at 25 µM under setting [2] came out at 145%, the activity at 25 µM under setting [3] is 87.1% and the activity at 25 µM under setting [4] amounted to 85.3%. Moreover, the activity at 100 µM runs as follows: under setting [10], 80.4%; under setting [11], 82.2%; under setting [12], 80.6%. For the same compound, the Percent fungal survival at 100 µM (replicate 2) was 78.3%.
Take `CC(C)Oc1cccc(NC(=O)c2ccccc2C(F)(F)F)c1` [MMV1009286]: the activity at 25 µM is 61% under setting [1], 87.9% under setting [2], 37.1% under setting [3] and 58% under setting [4]. Moreover, the activity at 100 µM under setting [5] worked out at 39%, the activity at 100 µM under setting [6] was determined as 26.3%, the activity at 100 µM under setting [7] turned out to be 52.4% and the activity at 100 µM under setting [8] is 38.1%.
Take `CCCCc1ccc(S(=O)(=O)Nc2cc(C)on2)cc1` [MMV1782108]: the activity at 25 µM runs as follows: under setting [1], 86.1%; under setting [2], 90.5%; under setting [3], 80.2%; under setting [4], 87.6%. Further, the activity at 100 µM runs as follows: under setting [5], 82.9%; under setting [6], 79.8%; under setting [7], 82.7%; under setting [8], 86.3%.
Consider `C[Si]1(C)CCN(Cc2cc(-c3ccc(Cl)cc3)n(-c3ccc(Cl)cc3)n2)CC1` [MMV1580843], for which the activity at 25 µM under setting [13] turned out to be 67.7%, the activity at 25 µM under setting [14] came to 56.5%, the activity at 25 µM under setting [15] was 86.3% and the activity at 25 µM under setting [16] stood at 60.2%. Further, the activity at 100 µM runs as follows: under setting [17], 57.4%; under setting [18], 52%; under setting [19], 70.7%; under setting [20], 49.4%.
As for `O=C(NCc1ccc2c3c(cccc13)C(=O)N2)c1cccs1` [MMV1341773], the activity at 25 µM is 75.4% under setting [21], 79.8% under setting [2], 76.7% under setting [3] and 69.6% under setting [4]. The activity at 100 µM under setting [22] was determined as 76.2%, the activity at 100 µM under setting [23] was 75.7%, the activity at 100 µM under setting [24] is 74% and the activity at 100 µM under setting [25] came to 78.8%.
Consider `NC(=O)c1c(N)sc2c1CCCCC2` [MMV056052], for which the activity at 25 µM runs as follows: under setting [9], 95.4%; under setting [2], 93.9%; under setting [3], 104%; under setting [4], 87.9%. Besides, the activity at 100 µM came out at 84.7% under setting [10], 86.2% under setting [11] and 87.9% under setting [12]. Besides, the Percent fungal survival at 100 µM (replicate 2) came to 80.1%.
Turning to `Oc1ccc(NCc2ccccc2OCc2ccccc2)cc1` [MMV1580504], the activity at 25 µM reads like this: under setting [9], 81.4%; under setting [2], 86.2%; under setting [3], 84.4%; under setting [4], 73.7%. In addition, the activity at 100 µM runs as follows: under setting [10], 8.06%; under setting [11], 2.17%; under setting [12], 17.3%. In addition, the Percent fungal survival at 100 µM (replicate 2) came out at 4.7%.
As to `O=C(O)C[C@H]1CC[C@H](c2ccc(-c3ccc(Nc4ccc(C(F)(F)F)nc4)cn3)cc2)CC1` [MMV1580498], the activity at 25 µM runs as follows: under setting [13], 72.2%; under setting [14], 72.4%; under setting [15], 58.9%; under setting [16], 85.2%. Besides, the activity at 100 µM by setting is: under setting [17], 80.6%; under setting [18], 82.3%; under setting [19], 88.6%; under setting [20], 70.8%.
As for `NC(=O)c1[nH]c2ccc(S(N)(=O)=O)cc2c1-c1ccccc1` [MMV1581556], the activity at 25 µM under setting [9] was determined as 72.4%, the activity at 25 µM under setting [2] is 70.3%, the activity at 25 µM under setting [3] turned out to be 68.8% and the activity at 25 µM under setting [4] is 78.1%. For the same compound, the activity at 100 µM by setting is: under setting [10], 70.1%; under setting [11], 77.5%; under setting [12], 64.9%. Further, the Percent fungal survival at 100 µM (replicate 2) is 68%.
With `CCN1CCN(Cc2nc3ccc([N+](=O)[O-])cc3c(=O)n2-c2ccccc2F)CC1` [MMV275100], the activity at 25 µM was 81.2% under setting [13], 83% under setting [14], 93.5% under setting [15] and 67.1% under setting [16]. In addition, the activity at 100 µM by setting is: under setting [17], 72.6%; under setting [18], 70.7%; under setting [19], 69.8%; under setting [20], 77.1%.
With `CC(C)Oc1ccc(-n2cnc3cc(/C=C\c4ccc(C(C)(C)O)cc4)ccc32)cc1` [MMV1782350], the activity at 25 µM by setting is: under setting [13], 60.8%; under setting [14], 60%; under setting [15], 63%; under setting [16], 59.5%. The activity at 100 µM was 55.5% under setting [17], 57.8% under setting [18], 56.4% under setting [19] and 52.3% under setting [20].
Regarding `CONC(=N)c1ccc(-c2ccc(-c3ccc(C(=N)NOC)cc3)o2)cc1` [MMV000059], the activity at 25 µM was 84.9% under setting [1], 94.2% under setting [2], 81% under setting [3] and 79.4% under setting [4]. The activity at 100 µM reads like this: under setting [5], 95.8%; under setting [6], 101%; under setting [7], 92%; under setting [8], 94.6%.
